# pKd: −log10 of the molar value.
# Legend:
# NCI-H322 cells = test: In vivo efficacy, lung cancer animal model NCI-H322; design: species or system Nude mice (BALB/cJGpt-Foxn1nu/Gpt)
# From the text: (§1) MIDA-MB-468 cells, i.e. human breast carcinoma cells (purchased from ATCC), NCI-H322 cells, i.e. lung cancer cells (purchased from ATCC), and T24/nectin-4, i.e. bladder cancer cells (available from the cell bank of the Chinese Academy of Science) were utilized respectively to inoculate Nude mice (BALB/cJGpt-Foxn1nu/Gpt, 4-5 weeks old) for establishing mouse models.
# (§2) The antibody-drug conjugate 3d and the control drug PADCVE (Enfortumab Vedotin, purchased from Seattle Gentics) were grouped and studied (as shown in Table 9 below). The mice were intravenously injected (IV) in a volume of 10 mL/kg, respectively; and the mice of the vehicle group were intravenously injected the same volume of vehicle (physiological saline). Tumor volumes were measured 2 times per week, and the mice were weighed and the data was recorded.
# (§3) When the experiment was finished, the experimental endpoint was reached, or if the tumor volume reached 1500 mm^3, the animals were sacrificed under CO2 anesthesia and the tumors were dissected and photographed.
# (§4) The method for evaluating in vivo efficacy was the same as described in Section 3.3 in the Group 3 of Examples.
# A mouse model was established using NCI-H322 cells and ADCs 3d and PADCVE were grouped and studied, as described in sections 4.1 and 4.2 in the present Group 4 of Examples.
# MDA-MB-468 cells = test: In vivo efficacy, breast cancer animal model MDA-MB-468 (Group 4 Example 1); design: species or system Nude mice (BALB/cJGpt-Foxn1nu/Gpt); settings: MDA-MB-468 model; for TV(D0): D0 baseline; for PR (D21), partial tumor regression: 8 animals per group
# From the text: as §1, §2, §3, §4
# A mouse model was established using MDA-MB-468 cells and ADCs 3d and PADCVE were grouped and studied, as described in sections 4.1 and 4.2 in the present Group 4 of Examples.
# [1] = molecular target: T1, human FcγR IIb (human CD32b) (Homo sapiens, UniProt P31994); test: BIAcore affinity for Fc receptor FcγRIIb; format: binding; settings: pH 7.4
# T1 sequence (P31994 43-310): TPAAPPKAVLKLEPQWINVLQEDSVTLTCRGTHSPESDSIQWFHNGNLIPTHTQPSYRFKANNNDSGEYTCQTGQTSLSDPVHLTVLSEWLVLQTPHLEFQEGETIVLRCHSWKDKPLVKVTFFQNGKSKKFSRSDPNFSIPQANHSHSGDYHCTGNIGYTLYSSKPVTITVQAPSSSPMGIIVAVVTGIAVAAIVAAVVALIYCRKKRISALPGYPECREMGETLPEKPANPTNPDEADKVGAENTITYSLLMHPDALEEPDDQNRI
# Method: (§5) Human FcγR I (CD64), FcγR IIa (CD32a (H167)), FcγR IIb (CD32b), and FcγR IIIa (CD16a (V176)) proteins were diluted to 0.25 μg/mL with running reagent 1 (10 mM N-(2-hydroxyethyl)piperazine-N-2 sulfonic acid, 150 mM sodium chloride, 3 mM ethylene diamine tetraacetic acid, 0.005% Tween-20, with pH adjusted to 7.4), and FcRn protein was diluted to 0.25 μg/mL with running reagent 2 (2 mM sodium dihydrogen phosphate, 10 mM disodium hydrogen phosphate, 137 mM sodium chloride, 2.7 mM potassium chloride, 0.05% tween-20, with pH adjusted to 6.0) and all the diluted proteins were sequentially injected to the experimental channels with His capture chips (FC2) at a flow rate of […] for about 40 RU. The capture of the ligands was not required for the reference channel (FC1). Samples to be detected were diluted with corresponding running reagents, and then were injected into the experimental channels and the reference channel at a flow rate of 30 μL/min. Association and dissociation was monitored for certain time periods. The Biocore 8K analysis software was used to calculate KD values for each antibody. The reference channel (FC1) was used for background subtraction.
# human FcγR I (CD64) [2] = molecular target: T2, human FcγR I (CD64) (Homo sapiens, UniProt P12314); test: BIAcore affinity for Fc receptor FcγRI; format: binding; settings: pH 7.4
# Method: as §5
# [3] = molecular target: T3, recombinant extra-cellular domain of human Nectin-4 protein (Homo sapiens, UniProt Q96NY8); test: BIAcore affinity for the antigen; format: binding; settings: human Nectin-4, pH 7.4
# T3 construct: recombinant extra-cellular domain of human Nectin-4 protein; purchased Novoprotein Scientific Inc
# T3 sequence (Q96NY8 32-349 limits assumed): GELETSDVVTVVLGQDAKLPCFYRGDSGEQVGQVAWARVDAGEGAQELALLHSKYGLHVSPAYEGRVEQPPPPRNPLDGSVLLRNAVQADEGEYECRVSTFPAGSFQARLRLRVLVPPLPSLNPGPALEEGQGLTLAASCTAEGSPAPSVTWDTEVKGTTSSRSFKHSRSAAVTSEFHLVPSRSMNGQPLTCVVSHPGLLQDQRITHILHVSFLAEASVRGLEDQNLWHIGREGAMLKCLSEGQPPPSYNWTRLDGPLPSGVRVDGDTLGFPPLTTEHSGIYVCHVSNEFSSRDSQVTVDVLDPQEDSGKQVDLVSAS
# Method: Human Nectin-4 protein (purchased from Novoprotein Scientific Inc.) was subjected to buffer exchange with a desalting column using running reagent 1 (10 mM N-(2-hydroxyethyl)piperazine-N-2 sulfonic acid, 150 mM sodium chloride, 3 mM ethylene diamine tetraacetic acid, 0.005% Tween-20, with pH adjusted to 7.4). Samples to be detected were diluted to 5 μg/mL with the running reagent 1, and sequentially injected to the experimental channels with His capture chips at a flow rate of […] for about 400 RU. The capture of the ligand was not required for the reference channel. The human Nectin-4 protein was diluted to 50, 25, 12.5, 6.25, 3.125, 1.563, 0.781, 0.391, and 0 nM with the corresponding running reagent, and then the diluted human Nectin-4 protein was injected into the experimental channels and the reference channel at a flow rate of 30 μL/min. The association and dissociation time were 120 sec and 300 sec, respectively. The Biocore 8K analysis software was used to calculate KD values for each antibody. The reference channel was used for background subtraction.
# FcRn [4] = molecular target: T4, FcRn (Homo sapiens, UniProt P55899); test: BIAcore affinity for Fc receptor FcRn; format: binding; settings: pH 6.0
# Method: as §5
# [5] = cited from earlier work
# PC-3-Nectin4(2-4) cells = test: Internalization activity, flow cytometry; format: cell-based
# Method: Experiment method was as follows: the target cells at the logarithmic stage of growth were harvested by centrifugation, adjusted to a density of 5×10^5 cells/mL in complete medium (F-12K medium containing 10% FBS and 250 μg/ml G418). 1 mL of the cell suspension obtained was pipetted into EP tubes, i.e., 5×10^5 cells in each, which were then centrifuged. The supernatant was discarded and the cells were washed twice with PBS. […] (as the control group) and 37° C. (as the experiment groups) respectively. After incubation for 2 h, a fluorescently labeled secondary antibody, goat anti human IgG Fc-FITC (purchased from Sigma) was added and incubated for 1 h at 4° C. After the incubation, the fluorescence intensity was measured with a flow cytometer, and the internalization efficiency of each of the samples was calculated by the formula as follows: percent internalization at the time point tx=(1−the fluorescence intensity of the sample at 37° C./the fluorescence intensity of the sample at 4° C.)×100% (tx is the incubation time period x of the sample with the cells).
# T24/nectin-4 cells = test: In vivo efficacy, bladder cancer animal model T24/nectin-4; design: species or system Nude mice (BALB/cJGpt-Foxn1nu/Gpt); settings: T24/nectin-4 model; for Average weight (g) at the beginning / Average weight (g) at the end: mouse body weight
# From the text: as §1, §2, §3, §4
# A mouse model was established using T24/nectin-4 cells and ADCs 3d and PADCVE were grouped and studied, as described in sections 4.1 and 4.2 in the present Group 4 of Examples.
# [6] = molecular target: T5, human FcγR IIa (human CD32a (H167)) (Homo sapiens, UniProt P12318); test: BIAcore affinity for Fc receptor FcγRIIa; format: binding; settings: pH 7.4
# T5 sequence (P12318 36-218 limits assumed): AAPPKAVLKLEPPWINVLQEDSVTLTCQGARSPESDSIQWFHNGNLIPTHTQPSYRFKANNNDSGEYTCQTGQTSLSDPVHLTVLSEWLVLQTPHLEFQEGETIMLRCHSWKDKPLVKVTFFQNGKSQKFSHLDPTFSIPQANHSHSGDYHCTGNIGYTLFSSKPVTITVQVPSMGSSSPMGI
# Method: as §5
# [7] = molecular target: Nectin-4 on stably transfected PC-3-Nectin4(2-4) cells (UniProt Q96NY8); test: cell-based or functional assay
# FcRn [8] = molecular target: T4, FcRn; test: BIAcore (SPR), FcRn captured on His capture chip, pH 6.0, ADC injected
# [9] = molecular target: recombinant extra-cellular domain of human Nectin-4 protein (human) (UniProt Q96NY8); test: BIAcore (SPR), ADC captured on chip, human Nectin-4 protein injected at 0.391-50 nM
# [10] = molecular target: Nectin-4 on stably transfected PC-3-Nectin4(2-4) cells (UniProt Q96NY8); test: flow cytometry on PC-3-Nectin4(2-4) cells, 2 h at 4° C., anti-human IgG Fc-FITC
# human FcγR I (CD64) [11] = molecular target: T2, human FcγR I (CD64); test: BIAcore (SPR), Fc receptor captured on His capture chip, pH 7.4, ADC injected
# [12] = molecular target: human FcγR IIa (human CD32a (H167)) (human) (UniProt P12318); test: as above
# [13] = molecular target: human FcγR IIb (human CD32b) (human) (UniProt P31994); test: as above
substance,measurement,setting,value
PADCEV,TV(D0),"NCI-H322 cells; 3 mg/kg IV at D0, D0 baseline",125.1 mm^3
same,T/C (%) (D21),"NCI-H322 cells; 3 mg/kg IV at D0, D21",36%
same,TGI % (D21),"NCI-H322 cells; 3 mg/kg IV at D0, D21",64%
same,TV(D21),"NCI-H322 cells; 3 mg/kg IV at D0, D21",325.9 mm^3
same,"PR (D21), partial tumor regression","NCI-H322 cells; 3 mg/kg IV at D0, D21, 8 animals per group",0
same,TV(D0),"NCI-H322 cells; 10 mg/kg IV at D0, D0 baseline",124.1 mm^3
same,T/C (%) (D21),"NCI-H322 cells; 10 mg/kg IV at D0, D21",−23%
same,TGI % (D21),"NCI-H322 cells; 10 mg/kg IV at D0, D21",123%
same,TV(D21),"NCI-H322 cells; 10 mg/kg IV at D0, D21",95.9 mm^3
same,"PR (D21), partial tumor regression","NCI-H322 cells; 10 mg/kg IV at D0, D21, 8 animals per group",7
same,TV(D0),MDA-MB-468 cells; 3 mg/kg IV at D0,133.1 mm^3
same,T/C (%) (D21),MDA-MB-468 cells; 3 mg/kg IV at D0,63%
same,TGI % (D21),MDA-MB-468 cells; 3 mg/kg IV at D0,37%
same,TV(D21),MDA-MB-468 cells; 3 mg/kg IV at D0,516.4 mm^3
same,"PR (D21), partial tumor regression",MDA-MB-468 cells; 3 mg/kg IV at D0,0
same,TV(D0),MDA-MB-468 cells; 10 mg/kg IV at D0,139.5 mm^3
same,T/C (%) (D21),MDA-MB-468 cells; 10 mg/kg IV at D0,28%
same,TGI % (D21),MDA-MB-468 cells; 10 mg/kg IV at D0,72%
same,TV(D21),MDA-MB-468 cells; 10 mg/kg IV at D0,309.5 mm^3
same,"PR (D21), partial tumor regression",MDA-MB-468 cells; 10 mg/kg IV at D0,0
same,pKd,[1],4.79
same,pKd,human FcγR I (CD64) [2],7.91
same,pKd,[3],8.31
same,ka,[3],1.05e+06 M⁻¹ s⁻¹
same,kd,[3],0.00512 s⁻¹
same,pKd,FcRn [4],6.29
same,adverse reactions accompanying treatment,[5]; clinical studies,"fever, skin itching, peripheral neuropathy, dry eyes, neutrocytopenia"
same,medium overall survival,[5]; patients receiving chemotherapy and PD-1/PD-L1 inhibitor regimens,12.9 months
same,overall survival longer than chemotherapy control group,[5]; versus patients receiving chemotherapy in the control group,3.9 months
same,Average fluorescence intensity 4° C.,"PC-3-Nectin4(2-4) cells; 2 h at 4° C. (control group), average",83966
same,Median fluorescence intensity 4° C.,"PC-3-Nectin4(2-4) cells; 2 h at 4° C. (control group), median",78925
same,Average fluorescence intensity 37° C.,"PC-3-Nectin4(2-4) cells; 2 h at 37° C., average",33129
same,Median fluorescence intensity 37° C.,"PC-3-Nectin4(2-4) cells; 2 h at 37° C., median",25038
same,Average tumor weight (g) (D22),T24/nectin-4 cells; 3 mg/kg IV at D0,0.23 g
same,TGI (%) (D22),T24/nectin-4 cells; 3 mg/kg IV at D0,90.7%
same,Average weight (g) at the beginning,T24/nectin-4 cells; 3 mg/kg IV at D0,22.0 g
same,Average weight (g) at the end,T24/nectin-4 cells; 3 mg/kg IV at D0,23.0 g
same,Average tumor weight (g) (D22),T24/nectin-4 cells; 10 mg/kg IV at D0,0.09 g
same,TGI (%) (D22),T24/nectin-4 cells; 10 mg/kg IV at D0,96.3%
same,Average weight (g) at the beginning,T24/nectin-4 cells; 10 mg/kg IV at D0,22.0 g
same,Average weight (g) at the end,T24/nectin-4 cells; 10 mg/kg IV at D0,23.3 g
same,pKd,[6],5.56
"PADCEV (Enfortumab Vedotin, purchased from Seattle Genetics) (antibody)","Fluorescence intensity at 37° C. (Average), surface antibody left after internalization",[7],33100
same,"Fluorescence intensity at 37° C. (Median), surface antibody left after internalization",[7],25000
same,pKd,FcRn [8],6.29
same,pKd,[9],8.31
same,fluorescence intensity at 4° C. (Average),[10],84000
same,fluorescence intensity at 4° C. (Median),[10],78900
same,pKd,human FcγR I (CD64) [11],7.91
same,pKd,[12],5.56
same,pKd,[13],4.79

# From patent US20240226318A1, “ANTIBODY DRUG CONJUGATE TARGETING NECTIN 4 AND PREPARATION METHOD THEREFOR AND USE THEREOF” (JIANGSU MABWELL HEALTH PHARMACEUTICAL R&D CO., LTD., priority 2021, published 2024)
